Reference: patent US6623933B1 (priority 1999, dated 2003)
Several values for one entry are separate records, joined by “and”; a condition that tells them apart may be missing. Equal entries are not always repeated.

Key:
Format in all cases: cell-based
[1] = test system: AMPA/kainate receptor (rat brain poly(A)+ RNA); assay: Kainate-evoked currents, Xenopus oocytes injected with rat brain poly(A)+ RNA
NR1111/NR2B = molecular target: T1, NR1111/NR2B (Rattus norvegicus, UniProt P35439+Q00960); assay: NMDA receptor currents in Ba-Ringer, Xenopus oocytes, Example 3
T1 construct: expressed in transfected cells; host or cells: Xenopus oocytes

NR1101/NR2B = molecular target: T2, NR1101/NR2B (Rattus norvegicus, UniProt P35439+Q00960); assay: as above
T2 construct: expressed in transfected cells; host or cells: Xenopus oocytes

NR1100/NR2B = molecular target: T3, NR1100/NR2B (Rattus norvegicus, UniProt P35439+Q00960); assay: as above
T3 construct: expressed in transfected cells; host or cells: Xenopus oocytes injected with RNA

[2] = molecular target: T4, NR1011/NR2B-D Chimera (III) (Rattus norvegicus, UniProt P35439+Q00960, A556P/A573T/A605S/A700P/A704S/A794R/A827V/A830G/C588S/C838W/D557A/D591T/D676E/D715E/D716E/D769G/DEL851-864/E594R/E701D/E791M/E804D/F554Y/F580L/F677Q/F681L/F709Y/F784L/F842V/F846L/G611A/G707V/G713R/G741R/G771R/G787D/G826L/I530V/I568T/I766L/I780L/I834L/I837A/I868M/INS849[…]/K624R/K669R/K708R/L566C/L719T/L783F/M789I/N675Q/N697S/N806I/P598S/Q621E/Q662T/Q767H/Q775P/Q812K/Q845R/R593K/R682K/R693K/R712P/R742K/S539A/S570V/S599T/S633L/S678Y/S720Q/S759T/T723A/T798S/T835V/V576I/V776I); assay: NR2 chimera study, Xenopus oocytes, Example 7; settings: 100 μM PS; 300 μM NMDA; 50 μM Glycine
T4 construct: expressed in transfected cells; host or cells: Xenopus oocytes
Description: (§1) To produce the first subunit, 96% of the cytoplasmic COOH-terminal region of the NR2B subunit (residues 870 to 1482) were replaced with the corresponding region of the NR2D subunit (residues 892 to 1323).
(§2) The chimeric receptors were generated by first introducing a series of silent restriction sites in both the NR2B and NR2D cDNA. The chimeric cDNAs were then constructed by replacing corresponding regions of one cDNA with that of the other. The silence site mutations were generated by a method involving PCR. […] This cassette was then ligated into the cDNA cut with the same two restriction enzymes.

NR1011/NR2B-D Chimera(I) = molecular target: T5, NR1011/NR2B-D Chimera(I) (Rattus norvegicus, UniProt P35439+Q00960+Q62645); assay: NR2 chimera study, Xenopus oocytes, Example 7; settings: 100 μM PS; 300 μM NMDA; 50 μM Glycine
T5 construct: expressed in transfected cells; host or cells: Xenopus oocytes
Description: as §1, §2

[3] = molecular target: T6, NR1011/NR2B-D Chimera(II) (Rattus norvegicus, UniProt P35439+Q00960+Q62645, A556P/A573T/A605S/A700P/A704S/A794R/A827V/A830G/C588S/C838W/D557A/D591T/D676E/D715E/D716E/D769G/E594R/E701D/E791M/E804D/F554Y/F580L/F677Q/F681L/F709Y/F784L/F842V/F846L/G611A/G707V/G713R/G741R/G771R/G787D/G826L/I530V/I568T/I766L/I780L/I834L/I837A/K624R/K669R/K708R/L566C/L719T/L783F/M789I/N675Q/N697S/N806I/P598S/Q621E/Q662T/Q767H/Q775P/Q812K/Q845R/R593K/R682K/R693K/R712P/R742K/S539A/S570V/S599T/S633L/S678Y/S720Q/S759T/T723A/T798S/T835V/V576I/V776I); assay: NR2 chimera study, Xenopus oocytes, Example 7; settings: 100 μM PS; 300 μM NMDA; 50 μM Glycine
T6 construct: expressed in transfected cells; host or cells: Xenopus oocytes
Description: as §1, §2

[4] = molecular target: T7, NR1011/NR2B-D chimera(IV) (Rattus norvegicus, UniProt P35439+Q62645, A747T/A861I/D811G/D828E/DEL874-885/E739D/E740D/F807L/G793D/G854A/H791Q/I800V/I813M/I830N/INS886[…]/K766R/K836Q/L790I/L804I/L808F/L850G/L858I/L870F/M815E/M890I/P736R/P799Q/Q744S/R732K/R737G/R765G/R795G/R818A/R869Q/S728A/S822T/T743L/T783S/V731G/V851A/V859T/V866F/W862C/Y733F); assay: NR2 chimera study, Xenopus oocytes, Example 7; settings: 100 μM PS; 300 μM NMDA; 50 μM Glycine
T7 construct: expressed in transfected cells; host or cells: Xenopus oocytes
Description: In the fourth chimera receptor, NR2B-DChimera (IV), the residues 727 to 892 were replaced on NR2D with residues 703 to 870 of NR2B, which contains the second extracellular domain, the fourth hydrophobic transmembrane domain and 31 residues from the C-terminal intracellular tail.
as §2

NR1101/NR2A = NR1101/NR2A (Rattus norvegicus, UniProt P35439+Q00959); assay: NMDA-induced currents of NR1 splice variants, Xenopus oocytes, Example 4; parameters: expressed in transfected cells; host or cells: Xenopus oocytes injected with NR1101 and NR2A mRNA; settings: NR1101/2A; 100 μM PS; 200 μM NMDA+10 μM glycine
Procedure: Overnight cultures (500 ml) of transformed bacterial cells were prepared in order to grow sufficient quantities for maxiprep isolation of the plasmid CDNA. Maxipreps were done using a Sorvall RC-5B ultracentrifuge, Qiagen columns and cDNA was quantitated with spectrophotometry (OD260 and OD260/ OD280 ratio). The resulting plasmid cDNA was linearized by digestion with an appropriate restriction enzyme that cleaves distal to the cDNA insert (XhoI for NR2A or NotI for NR1100, NR1000, NR1111, NR1011, NR1101, NR1001). […] The samples were stored at −20° C. until use.
In vitro transcription was performed using the Ambion mMessage mMachine kit with T7 (NR1100, NR1000, NR1111, NR1011, NR1101, NR1001) RNA polymerase. The reaction was assembled on ice and allowed to incubate at 37° C. for 1-2 hr. The resulting mRNA was precipitated (reaction termination) using lithium chloride/5 mM EDTA solution and dissolved in RNase-free H2O. The concentration (OD260) and OD260/OD280 ratio (should be more than 1.5) was determined by spectrophotometer. The yield of mRNA was generally 15-30 μg. mRNA was stored at −80° C. until use.
Intracellular recording microelectrodes were fabricated from 100 μl borosilicate glass disposable micropipettes using a 2-step protocol on a standard horizontal Flaming-Brown micropipette puller.

T2 sequence (Q00960 27-1482, other chains not shown): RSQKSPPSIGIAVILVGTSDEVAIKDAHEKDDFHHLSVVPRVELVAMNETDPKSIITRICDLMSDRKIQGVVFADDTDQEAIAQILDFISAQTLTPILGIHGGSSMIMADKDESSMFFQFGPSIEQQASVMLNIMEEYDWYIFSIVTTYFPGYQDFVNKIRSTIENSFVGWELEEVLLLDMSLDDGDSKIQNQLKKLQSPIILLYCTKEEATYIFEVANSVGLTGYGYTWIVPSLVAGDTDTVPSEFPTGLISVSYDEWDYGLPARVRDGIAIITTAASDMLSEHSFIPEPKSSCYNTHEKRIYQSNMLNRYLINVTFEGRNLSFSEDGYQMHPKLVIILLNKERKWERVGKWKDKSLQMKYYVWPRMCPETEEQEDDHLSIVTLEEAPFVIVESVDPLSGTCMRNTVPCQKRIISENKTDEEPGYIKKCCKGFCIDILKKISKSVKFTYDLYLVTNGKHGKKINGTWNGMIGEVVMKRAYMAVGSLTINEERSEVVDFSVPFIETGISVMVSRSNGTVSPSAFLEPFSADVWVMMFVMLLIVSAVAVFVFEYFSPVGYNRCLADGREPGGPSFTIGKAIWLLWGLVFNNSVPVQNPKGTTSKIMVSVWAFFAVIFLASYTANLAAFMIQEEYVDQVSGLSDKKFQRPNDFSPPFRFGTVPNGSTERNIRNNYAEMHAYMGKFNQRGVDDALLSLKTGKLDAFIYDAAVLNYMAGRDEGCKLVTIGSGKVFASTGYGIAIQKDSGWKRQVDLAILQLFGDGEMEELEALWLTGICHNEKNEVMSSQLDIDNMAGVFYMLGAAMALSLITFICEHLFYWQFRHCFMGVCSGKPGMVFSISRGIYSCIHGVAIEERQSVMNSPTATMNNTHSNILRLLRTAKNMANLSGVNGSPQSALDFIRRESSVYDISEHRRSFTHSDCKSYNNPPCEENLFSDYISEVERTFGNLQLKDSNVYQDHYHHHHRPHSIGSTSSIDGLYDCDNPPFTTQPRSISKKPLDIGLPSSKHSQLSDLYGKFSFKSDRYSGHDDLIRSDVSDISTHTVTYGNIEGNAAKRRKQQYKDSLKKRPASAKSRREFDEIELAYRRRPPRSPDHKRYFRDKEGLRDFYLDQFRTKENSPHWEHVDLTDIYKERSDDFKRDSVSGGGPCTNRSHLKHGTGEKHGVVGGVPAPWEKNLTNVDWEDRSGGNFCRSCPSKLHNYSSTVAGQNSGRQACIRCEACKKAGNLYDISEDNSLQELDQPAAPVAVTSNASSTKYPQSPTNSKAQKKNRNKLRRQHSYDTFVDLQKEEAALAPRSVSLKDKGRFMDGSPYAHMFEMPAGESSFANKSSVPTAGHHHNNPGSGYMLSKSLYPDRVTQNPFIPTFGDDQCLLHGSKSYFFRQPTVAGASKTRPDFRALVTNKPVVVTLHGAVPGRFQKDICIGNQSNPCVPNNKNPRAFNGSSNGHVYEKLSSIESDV
T3 sequence (Q00960 27-1482, other chains not shown): as above
T1 sequence (Q00960 27-1482, other chains not shown): as above

pregnenolone sulfate [PS]
onset of inhibition [1]: < 10 s | reduction in kainate-evoked responses ([1]; 100 μM PS, 100 μM kainate): 49±3% | PS Emax (NR1111/NR2B): 1.20 ± 0.10 | PS nHill (NR1111/NR2B): 1.52 ± 0.10 | PS Emax (NR1101/NR2B): 1.03 ± 0.02 | PS nHill (NR1101/NR2B): 1.63 ± 0.29 | PS Emax (NR1100/NR2B): 1.02 ± 0.10 | PS nHill (NR1100/NR2B): 1.42 ± 0.11 | inhibition of inward current [2]: 36.74±6.54% | potentiation of inward current (NR1011/NR2B-D Chimera(I)): 52.69±3.58% | inhibition of inward current [3]: 43.04±5.44% | potentiation of inward current [4]: 66.05±2.75% and 66.05±2.76% | maximum relative current (MRC) (NR1101/NR2A): 1.78
